Assay type in all cases: cell-based
Assay [1] has as its system HEK293S. Description: Binding affinity to Aplysia californica AchBP M116L,Y195F mutant expressed in HEK293S cells assessed as specific photoincorporation at 46 pmol by scintillation counting.
For assay [2], the system named is HEK293S. Nature of the assay: Binding affinity to Aplysia californica AchBP A107M, M116L, Y195F mutant expressed in HEK293S cells assessed as specific photoincorporation at 46 pmol by scintillation counting.
Assay [3] can be described thus: Binding affinity to Aplysia californica AchBP V108M, M116L, Y195F mutant expressed in HEK293S cells by scintillation proximity assay. A general note: In a scintillation proximity assay essentially only radioactivity close to the scintillant gives light.
A short description of assay [4]: Binding affinity to wild type Aplysia californica AchBP expressed in HEK293S cells by scintillation proximity assay.
Assay [5] can be described thus: Binding affinity to Aplysia californica AchBP M116L,Y195F mutant expressed in HEK293S cells by scintillation proximity assay.
Assay [6] has as its system HEK293S. Description: Binding affinity to Aplysia californica AchBP A107M, M116L mutant expressed in HEK293S cells assessed as specific photoincorporation at 46 pmol by scintillation counting.
Assay [7] in a line: Binding affinity to Aplysia californica AchBP I118M mutant expressed in HEK293S cells by scintillation proximity assay.
In assay [8] the test system is HEK293S. Nature of the assay: Binding affinity to Aplysia californica AchBP I106M, M116L, Y195F mutant expressed in HEK293S cells assessed as specific photoincorporation at 46 pmol by scintillation counting.
Assay [9] has as its system HEK293S. Nature of the assay: Binding affinity to Aplysia californica AchBP I106M, M116L mutant expressed in HEK293S cells assessed as specific photoincorporation at 46 pmol by scintillation counting.
For assay [10], the system named is HEK293S. Nature of the assay: Binding affinity to Aplysia californica AchBP M116L mutant expressed in HEK293S cells assessed as specific photoincorporation at 46 pmol by scintillation counting relative to wild type.
The subject of assay [11] is HEK293S. Description: Binding affinity to Aplysia californica AchBP A107M, M116L mutant expressed in HEK293S cells assessed as specific photoincorporation at 46 pmol by scintillation counting relative to wild type.
The test system of assay [12] is HEK293S. Description: Binding affinity to Aplysia californica AchBP V108M, M116L, Y195F mutant expressed in HEK293S cells assessed as specific photoincorporation at 46 pmol by scintillation counting.
In assay [13] the test system is HEK293S. Nature of the assay: Binding affinity to Aplysia californica AchBP S114M, M116L mutant expressed in HEK293S cells assessed as specific photoincorporation at 46 pmol by scintillation counting relative to wild type.
The subject of assay [14] is HEK293S. Description: Binding affinity to Aplysia californica AchBP V108M, M116L mutant expressed in HEK293S cells assessed as specific photoincorporation at 46 pmol by scintillation counting.
In assay [15] the test system is HEK293S. Nature of the assay: Binding affinity to wild type Aplysia californica AchBP expressed in HEK293S cells assessed as specific photoincorporation at 46 pmol by scintillation counting.
In assay [16] the test system is HEK293S. Description: Binding affinity to Aplysia californica AchBP M116Y mutant expressed in HEK293S cells assessed as specific photoincorporation at 46 pmol by scintillation counting.
The test system of assay [17] is HEK293S. Description: Binding affinity to Aplysia californica AchBP M116Y, Y195F mutant expressed in HEK293S cells assessed as specific photoincorporation at 46 pmol by scintillation counting relative to wild type.

The Kd is the free concentration of one partner at which half of the binding sites on the other are occupied at equilibrium, for simple one-to-one binding. Low readings indicate higher affinity, high ones lower affinity. For `Clc1ccc(C2CC3CCC2N3)cn1` (racemic) [EPIBATIDINE], the Activity in the assay with HEK293S [1] was found to be 2%; with HEK293S [2] it was 3.7%; in the assay with HEK293S [6], 29%; with HEK293S [8], 3.7%; with HEK293S [9], 26%; with HEK293S [10] it was 121%. Further, the Activity came out at 100% with HEK293S [11]; 0% in the assay on HEK293S [12]; 66% in the assay on HEK293S [13]; 8.1% with HEK293S [14]; 29% with HEK293S [15]; 17% in the assay with HEK293S [16]. For the same molecule, the Activity with HEK293S [17] came out at 30%. In addition, the Kd in assay [3] came to 2.9 nM; in [4], 8.6 nM; in assay [5], 22 nM; in assay [7], 10 nM.

The values above are taken from ChEMBL document CHEMBL1136964, “Nicotinic agonist binding site mapped by methionine- and tyrosine-scanning coupled with azidochloropyridinyl photoaffinity labeling” (J Med Chem, 2009).
